SMILES strings stand for the structures. Read-outs that look alike come from different tables or passages of the source.

The test system of assay [1] is human breast cancer cell line MCF-7. Description: Oncotest propidium iodide monolayer cell proliferation assay, MCF-7. It is filed as cell-based. On the procedure:
(§1) The anticancer activity of compounds (8a-q) was evaluated using the Oncotest monolayer assay in the human prostate cancer cell line 22Rv1 and the human breast cancer cell line MCF-7, as an outsourced service. […] Antitumour activity was assessed after four days of treatment with the compounds using a propidium iodide based monolayer assay. Potency is expressed as absolute IC50 values, calculated by non-linear regression analysis following testing in triplicate. The seventeen inhibitors were tested at 10 concentrations in half-log increments up to 100 μM in triplicate.
(§2) A modified propidium iodide (PI) based monolayer assay was used to assess the anti-cancer activity of the compounds. Briefly, cells were harvested from exponential phase cultures, counted and plated in 96-well flat-bottom microtiter plates at a cell density of 8.000–12.000 cells/well. After a 24 h recovery period to allow the cells to resume exponential growth, 10 μl of culture medium (six control wells/plate) or culture medium with test compound were added. The compounds were applied in half-log increments at 10 concentrations in triplicate. After a total treatment period of 96 h, cells were washed with 200 μl PBS to remove dead cells and debris. Then, 200 μl of a solution containing 7 μg/mL propidium iodide (PI) was added. After an incubation period of 1–2 h at room temperature, fluorescence (FU) was measured using the EnSpire Multimode Plate Reader (excitation λ = 530 nm, emission λ = 620 nm) to quantify the amount of attached viable cells. IC50 values were calculated by 4-parameter non-linear curve fit using Oncotest Warehouse Software. For calculation of mean IC50 values the geometric mean was used.

Assay [2] concerns human prostate cancer cell line 22Rv1. Description: Oncotest propidium iodide monolayer cell proliferation assay, 22Rv1. The format is cell-based. The settings on record: mean absolute IC50, 96 h treatment, propidium iodide endpoint, triplicate. On the procedure: as §1, §2
Assay [3] deals with MCF-7 and 22Rv1. Description: Oncotest monolayer assay, results stated over both cell lines. It is filed as cell-based, human. The settings on record: for concentration-effect curve: cell viability, ten concentrations up to 100 μM, Fig. 3. The protocol: as §1, §2
In assay [4] the test system is microtubules in MCF-7 cells. Description: Microtubule immunofluorescence assay (α-tubulin, confocal microscopy). The format is cell-based, human. The settings on record: 250 nM, 6 h; for effect on tubulin cytoskeleton: MCF-7, interphase cells for 8e and 8b, all cells for podophyllotoxin; for induced defects in dividing cells: MCF-7 dividing cells. The protocol:
In order to investigate the microtubule-destabilising ability of these analogues, experiments were conducted to determine their effects on the subcellular organisation of microtubules in vitro [27]. […] The nuclei of control interphase cells were relatively monomorphic. […] Analogue treated cells in interphase featured shorter microtubule filaments and slightly more disordered microtubule networks than control cells.
Following cell seeding (42 h) the media was replaced with fresh complete media containing 250 nM of podophyllotoxin, compound 8e and 8b or 0.01% DMSO. The cells were treated for 6 h with drug or diluent control then subjected to downstream immunofluorescence analysis (see tubulin immunofluorescence protocol).
The media was aspirated and the cells were washed once in ice-cold PBS before being fixed in 100% methanol at −20 °C for 10 min. The cells were then washed thrice in PBS and stored overnight at 4 °C. The following day cells were incubated in 150 μL of blocking solution (2% FBS [v/v], 2% BSA [w/v] in PBS pH 7.4) for 30 min. Blocking was followed by 1 h incubation with 100 μl of mouse anti-α tubulin antibody diluted 1:2000 in blocking solution. Cells were then washed 3 × 5min in PBS before being incubated with Alexa488 labelled, anti-mouse secondary antibody (1:400) and Hoechst 33342 (1 μg/ml) for 30 min. The cells were washed a final 3 × 5 min in PBS before coverslips were dipped once into PBS, once into dH2O and mounted onto glass slides with 12 μL of mounting medium (Dako oil). Three independent experiments were carried out in duplicate.
Confocal fluorescence microscopy analysis was conducted on a Leica SP5 inverted confocal laser scanning microscope. The microscope was equipped with a 63x oil-immersion objective and the 405 and 488 nm lasers were used. Gain and offset settings were optimised for each fluorescent channel within an experiment. Images were recorded using the sequential scanning mode to prevent fluorescence channel crosstalk/bleed-through. Images were scanned at 100 Hz with a line average of three to reduce noise.

The subject of assay [5] is microtubules in MCF-7 cells. Description: Microtubule repolymerisation assay, first variation (6 h pre-treatment). The format is cell-based, human. The settings on record: 250 nM 6 h pre-treatment, 30 min on ice, rewarmed 37 °C 30 min. On the procedure:
(§3) Cold depolymerisation of the tubulin cytoskeleton in vitro, including in MCF-7 cells, can be achieved by relatively short incubations at 4 °C [27], [28], [29]. To test the ability of the compounds to impair microtubule polymerisation, following depolymerisation, two variations of a tubulin re-polymerisation assay were performed. In the first, MCF-7 cells were pre-treated for 6 h with 250 nM of the compounds before being incubated on ice for 30 min then rewarmed to 37 °C for a further 30 min. In the second variation, cells were first incubated on ice then rewarmed to 37 °C in the presence of the compounds (250 nM, 30 min total treatment time). Samples of cells were fixed post-cold depolymerisation and post-warm repolymerisation. In both variations, immunofluorescence for α-tubulin was performed and cells were imaged by confocal microscopy (Fig. 6 and 7). In control and treated cells, incubation on ice for 30 min led to total loss of filamentous tubulin and the protein was diffusely scattered throughout the cytoplasm. […] Upon increasing the temperature to 37 °C for 30 min there was clear repolymerisation of the microtubule network.
Following cell seeding (42 h) the media was replaced with drug (or diluent control) containing complete media and cells were treated for 6 h with 250 nM of podophyllotoxin, compound 8e, 8b or 0.01% DMSO. The plates were then placed on ice and cells were incubated at 4 °C for 30 min to depolymerise the tubulin cytoskeleton, [28], [30]. One set of cover slips for each treatment condition was prepared for tubulin immunofluorescence (see protocol below) and the remaining sets of cover slips were returned to the incubator (37 °C, 5% CO2) for 30 min to allow re-polymerisation of microtubules. Tubulin immunofluorescence was performed after the cells had been rewarmed for 30 min (see below). […]
(§4) Confocal fluorescence microscopy analysis was conducted on a Leica SP5 inverted confocal laser scanning microscope. […] Images were recorded using the sequential scanning mode to prevent fluorescence channel crosstalk/bleed-through. […]

Assay [6] relates to microtubules in MCF-7 cells. Kind of assay: Microtubule repolymerisation assay, second variation (no pre-treatment). The format is cell-based, human. The settings on record: 30 min on ice, then rewarmed 37 °C 30 min in presence of 250 nM compound. On the procedure:
as §3
Following cell seeding (42 h), the plates were placed on ice for 30 min to cold-depolymerise the tubulin cytoskeleton. Control cold-depolymerised coverslips were then immediately prepared for tubulin immunofluorescence and the remaining coverslips were rewarmed and treated with 250 nM of podophyllotoxin, compound 8e, 8b or 0.01% DMSO for 30 min (37 °C, 5% CO2). Together with the controls these were then subjected to tubulin immunofluorescence.
The media was aspirated and the cells were washed once in ice-cold PBS before being fixed in 100% methanol at −20 °C for 10 min. The cells were then washed thrice in PBS and stored overnight at 4 °C. […]
as §4

On the set-up of assay [7]: method as in PMID 3290912. The conditions noted are these: cis isomer versus podophyllotoxin; cited from earlier work.
Setting [8] is: Homo sapiens, MCF7, 96 h, mean absolute IC50, 96 h treatment, propidium iodide endpoint, triplicate, read-out: MCF-7 IC50.

`O=C1OC[C@]2(O)Nc3c(c4cccnc4c4ncccc34)[C@@H](c3ccccc3OC(F)(F)F)[C@H]12` (mixture of isomers) [Compound 8b, (9aS, 12aS, 13S) and (9aR, 12aR, 13R) 9a-hydroxy-13-(2-(trifluoromethoxy)phenyl)-9a,10,12a,13-tetrahydrofuro[3,4-b]pyrido[3,2-f][1,10]phenanthrolin-12(9H)-one]: the IC50 (in general, the point on the concentration scale where inhibition reaches its midpoint) in assay [1] (setting [8]) stood at 0.288 µM; in assay [2] (Homo sapiens, 22Rv1, 96 h), 0.165 µM. In addition, the concentration-effect curve entry in assay [3] is “sigmoidal concentration-effect curves with low bottom plateaus indicating total cell kill at higher test concentration”. Also, in assay [4], the “effect on tubulin cytoskeleton” value is “more subtle changes in the tubulin filaments and their organisation”. Moreover, in assay [4], the “induced defects in dividing cells” value is “aberrations of spindle morphology and polarity, nuclear atypia (pleomorphism, pyknosis) and uncongressed/misaligned chromosomes”. Besides, the “repolymerisation of tubulin following cold depolymerisation” value (from here on “repolymerisation”) in assay [5] was “the microtubule cytoskeleton was still able to reform but mitotic defects and shorter filaments”; in assay [6], “the microtubule cytoskeleton was able to reform with negligible defects”.

Regarding `O=C1OC[C@]2(O)Nc3c(c4cccnc4c4ncccc34)[C@@H](c3ccccc3C(F)(F)F)[C@@H]12` (mixture of isomers) [Compound 8e, (9aS, 12aR, 13R) and (9aR, 12aS, 13S) 9a-hydroxy-13-(2-(trifluoromethyl)phenyl)-9a,10,12a,13-tetrahydrofuro[3,4-b]pyrido[3,2-f][1,10]phenanthrolin-12(9H)-one], the IC50 in assay [1] (setting [8]) turned out to be 0.21 µM; in assay [1] (mean absolute IC50, 96 h treatment, propidium iodide endpoint, triplicate, read-out: MCF-7 IC50), 0.209 µM; in assay [2] (Homo sapiens, 22Rv1, 96 h) it was 0.11 µM; in assay [2] it was 0.107 µM. The concentration-effect curve entry in assay [3] is “sigmoidal concentration-effect curves with low bottom plateaus indicating total cell kill at higher test concentration”. Further, the “effect on tubulin cytoskeleton” value in assay [4] was “more subtle changes in the tubulin filaments and their organisation”. Also, in assay [4], the “induced defects in dividing cells” value is “aberrations of spindle morphology and polarity, nuclear atypia (pleomorphism, pyknosis) and uncongressed/misaligned chromosomes”. For the same compound, the “repolymerisation” value in assay [5] was “the microtubule cytoskeleton was still able to reform but mitotic defects and shorter filaments”; in assay [6], “the microtubule cytoskeleton was able to reform with negligible defects”.

With `COc1cc([C@@H]2c3cc4c(cc3[C@H](O)[C@H]3COC(=O)[C@@H]23)OCO4)cc(OC)c1OC` [picropodophyllin], the “less active than podophyllotoxin” value in assay [7] was 100 fold.

For `COc1cc([C@@H]2c3cc4c(cc3[C@@H](O[C@@H]3O[C@@H]5CO[C@@H](c6cccs6)O[C@H]5[C@H](O)[C@H]3O)[C@H]3COC(=O)[C@H]23)OCO4)cc(OC)c1O` [Teniposide, reference compound], the half-maximal inhibitory concentration (IC50) was 0.125 µM in assay [1] (setting [8]); 0.082 µM in assay [2] (Homo sapiens, 22Rv1, 96 h); 0.08 to 0.13 µM in assay [3] (Homo sapiens, range or bound over both cell lines MCF-7 and 22Rv1, read-out: IC50 values in the range).

Take `COc1cc([C@@H]2c3cc4c(cc3[C@H](O)[C@H]3COC(=O)[C@H]23)OCO4)cc(OC)c1OC` [Podophyllotoxin]: the half-inhibitory concentration (IC50) in assay [1] (Homo sapiens, MCF7, 96 h, read-out: MCF-7 IC50 (μM)) was found to be 0.23 µM. Further, the “effect on tubulin cytoskeleton” value in assay [4] is reported as “dramatic disruption of the tubulin cytoskeleton”. Also, the “repolymerisation” value in assay [5] and in assay [6] was “significantly impaired the repolymerisation of tubulin following cold depolymerisation” each time.

(Values after article PMC4762250, “Novel cis-selective and non-epimerisable C3 hydroxy azapodophyllotoxins targeting microtubules in cancer cells” (European Journal of Medicinal Chemistry, 2016).)
